Literature values as cited in patent US20180373846A1, “METHODS AND SYSTEMS FOR ORGANIC SOLUTE SAMPLING OF AQUEOUS AND HETEROGENEOUS ENVIRONMENTS” (University of Maryland, Baltimore, priority 2014, published 2018).

Assays:
β2AR = β2AR (Homo sapiens, UniProt P07550); conditions: experimental, from cited references
[1] = experimental hydration free energy
[2] = Table 2, reference 31
T4-L99A = T4-L99A (Enterobacteria phage T4, UniProt P00720, L99A)

ΔGbind (β2AR) | Molecule | HFE^exp [1] | HFE^fep [2] | experimental binding affinity (T4-L99A)
−12.23 | Nc1c(Cl)cc([C@@H](O)CNCCCCCCOCCc2ccccn2)cc1Cl [Picumeterol] | – | – | –
−9.72 | Hydroxybenzyl isoproterenol | – | – | –
– | NC=O [Formamide, formamide] | -14 kcal/mol | -10.71 kcal/mol | –
– | c1c[nH]cn1 [Imidazole, imidazole] | – | -12.55 kcal/mol | –
– | CC=O [Acetaldehyde, acetaldehyde] | -3.5 kcal/mol | -4.43 kcal/mol | –
– | CN [Methylammonium, methylammonium] | -71.3 kcal/mol | -52.0 kcal/mol | –
– | CC(=O)O [Acetate] | -79.1 kcal/mol | -96.5 kcal/mol | –
– | CCC [Propane, propane] | 1.96 kcal/mol | 1.60 kcal/mol | –
– | c1ccccc1 [Benzene, benzene] | -0.83 kcal/mol | -0.71 kcal/mol | -5.19 ± 0.16 kcal/mol
– | CO [Methanol, methanol] | -5.1 kcal/mol | -6.16 kcal/mol | –
– | O [Water, water] | -5.6 kcal/mol | – | –

Molecule | ΔGbind (β2AR) | HFE^exp [1] | HFE^fep [2] | experimental binding affinity (T4-L99A)
CC(C)NCC(O)COc1cccc2[nH]ccc12 (centres unmarked) [Pindolol] | −12.43 | – | – | –
